Key:
[1] = Loss of tail withdrawal reflex (LOTWR) in rats, single intravenous injection, dose escalation: potent analgesic effect and severe adverse reactions; type: in vivo, SD rats; conditions: rat, in vivo, single intravenous injection, minimum dose resulting in serious adverse reactions / minimum effective dose, class symbol, read-out: The safety therapeutic index
Method: (§1) Using the loss of tail withdrawal reflex (LOTWR) in rats as an indicator, the potent analgesic effect of the compounds according to the present invention was evaluated.
(§2) 1.1 Experimental animals: Adult male SD rats weighing between 220-300 g were selected for the experiment. The rats were housed in sawdust-bedded cages with a temperature of 25±1°C, humidity ranging from 40% to 60%, and a 12-hour light/12-hour dark cycle. Each cage contained no more than 5 rats, with free access to water and food.
(§3) • (1) The compound of the present invention, along with the positive control drug remifentanil and the negative control (vehicle), were administered in fixed volumes. A dose escalation approach was employed to determine the minimum effective dose at which the compound of the present invention produces potent analgesic effects, as well as the minimum dose at which severe adverse reactions first appear. • (2) LOTWR lasting for 30 seconds was used as the criterion for generating potent analgesic effects. During the experiment, drugs were administered via the tail vein of rats, with a dosage volume of 0.6 mL per rat and a dosage rate of 0.02 mL/s. Subsequently, an alligator clip was applied at a distance of 1 cm from the base of the rat's tail, clamping once longitudinally and once transversely before being left in place. Meanwhile, the distal end of the alligator clip was continuously oscillated (30 times/min) to continuously generate stimulation. […] When all results were "no LOTWR" after 10 minutes of testing (5 trials), the test was stopped and recorded as "ineffective." • (3) All compounds would undergo a dose escalation for efficacy evaluation, starting from 1 mg/kg (due to the high potency of remifentanil, the lowest dose was set at 1 µg/kg), followed by 5 mg/kg, 10 mg/kg, 20 mg/kg, and so on (increasing by 20 mg/kg increments after 20 mg/kg). The dose escalation would be stopped when rats show signs of death, and the lowest effective dose and the lowest dose at which severe adverse reactions occur would be recorded throughout the process. In this study, severe adverse reactions are defined as apnea, generalized tonic rigidity, convulsions, opisthotonus, seizures, etc.
(§4) 1.3 Evaluation indicators: the minimum effective dose; the minimum dose resulting in serious adverse reactions; the safety therapeutic index = "the minimum dose resulting in serious adverse reactions" / "the minimum effective dose".

rats = assay: as above; type: in vivo, SD rats; conditions: Rattus norvegicus, single intravenous injection (tail vein), LOTWR lasting for 30 seconds as criterion, class symbol, read-out: The minimum effective dose
Method: as §1, §2, §3, §4

For `Cc1cc(C)cc(CNC(=O)NCc2ccc(C)cc2N(C)C)c1` [Example 63], the selectivity ratio [1] was no more than 2 and the minimal effective dose (rats) was no more than 10 mg/kg.

Work on `Cc1ccc(CNC(=O)NCc2cnc[nH]2)c(N(C)C)c1` [Example 64] yielded a selectivity ratio [1] greater than 4 and a minimal effective dose (rats) of no more than 10 mg/kg.

With `Cc1ccc(CNC(=O)NCc2ccnn2C)c(N(C)C)c1` [Example 65] the selectivity ratio [1] was greater than 4 and the minimal effective dose (rats) was no more than 10 mg/kg.

Work on `Cc1ccc(CNC(=S)NCc2ccns2)c(N(C)C)c1` [Example 66] yielded a selectivity ratio [1] of 2 to 4 and a minimal effective dose (rats) of no more than 10 mg/kg.

With `Cc1ccc(CNC(=S)NCc2cccs2)c(N(C)C)c1` [Example 67] the selectivity ratio [1] was greater than 4 and the minimal effective dose (rats) was no more than 10 mg/kg.

`Cc1ccc(CNC(=S)NCc2ccns2)cc1N(C)C` [Example 68] showed a selectivity ratio [1] of 2 to 4 and a minimal effective dose (rats) of no more than 10 mg/kg.

`Cc1ccc(CNC(=S)NCc2ccco2)c(N(C)C)c1` [Example 69] showed a selectivity ratio [1] of 2 to 4 and a minimal effective dose (rats) of no more than 10 mg/kg.

Work on `Cc1ccc(CNC(=S)NCc2ccoc2)c(N(C)C)c1` [Example 70] yielded a selectivity ratio [1] of no more than 2 and a minimal effective dose (rats) of 10 to 20 mg/kg.

With `Cc1ccc(CNC(=S)NCc2ccco2)cc1N(C)C` [Example 71] the selectivity ratio [1] was no more than 2 and the minimal effective dose (rats) was no more than 10 mg/kg.

`Cc1ccc(CNC(=S)NCc2ccoc2)cc1N(C)C` [Example 72] showed a selectivity ratio [1] of 2 to 4 and a minimal effective dose (rats) of no more than 10 mg/kg.

Work on `Cc1ccc(CNC(=S)NCc2ncc[nH]2)c(N(C)C)c1` [Example 74] yielded a selectivity ratio [1] of no more than 2 and a minimal effective dose (rats) greater than 30 mg/kg.

For `Cc1ccc(CNC(=N)NCc2ncc[nH]2)c(N(C)C)c1` [Example 75], the selectivity ratio [1] was 2 to 4 and the minimal effective dose (rats) was no more than 10 mg/kg.

`CCCc1ccc(CNC(=S)NCc2cccs2)c(N(C)C)c1` [Example 76] showed a selectivity ratio [1] greater than 4 and a minimal effective dose (rats) of no more than 10 mg/kg.

`CCCc1ccc(CNC(=S)NCc2cccs2)cc1N(C)C` [Example 77] showed a selectivity ratio [1] of 2 to 4 and a minimal effective dose (rats) of no more than 10 mg/kg.

`CN(C)c1ccc(CNC(=O)NCc2cccs2)cc1` [Example 78] gave a selectivity ratio [1] of no more than 2 and a minimal effective dose (rats) of 10 to 20 mg/kg.

Compound `Cc1ccc(NC(=S)Nc2ccsc2)cc1N(C)C` [Example 79] has a selectivity ratio [1] of no more than 2 and a minimal effective dose (rats) of 20 to 30 mg/kg.

Work on `Cc1ccc(CCNC(=S)Nc2cccs2)c(N(C)C)c1` [Example 81] yielded a selectivity ratio [1] of 2 to 4 and a minimal effective dose (rats) of no more than 10 mg/kg.

`[2H]C([2H])([2H])N(c1cc(C)ccc1CNC(=S)NCc1cccs1)C([2H])([2H])[2H]` [Example 82] gave a selectivity ratio [1] of 2 to 4 and a minimal effective dose (rats) of no more than 10 mg/kg.

Work on `Cc1ccc(NC(=S)Nc2cccs2)c(N(C)C)c1` [Example 83] yielded a selectivity ratio [1] greater than 4 and a minimal effective dose (rats) of no more than 10 mg/kg.

`Cc1ccc(CNC(=S)NCc2ccccc2)c(N(C)C)c1` [Example 85] showed a selectivity ratio [1] of no more than 2 and a minimal effective dose (rats) of no more than 10 mg/kg.

`Cc1ccc(CNC(=S)NCc2ccccc2)cc1N(C)C` [Example 86] showed a selectivity ratio [1] of 2 to 4 and a minimal effective dose (rats) of no more than 10 mg/kg.

For `Cc1ccc(CNC(=S)NCc2ccnn2C)c(N(C)C)c1` [Example 87], the selectivity ratio [1] was greater than 4 and the minimal effective dose (rats) was no more than 10 mg/kg.

`CN(C)c1cc(C(F)(F)F)ccc1CNC(=S)NCc1cccs1` [Example 88] gave a selectivity ratio [1] greater than 4 and a minimal effective dose (rats) of no more than 10 mg/kg.

With `Cc1ccc(CNC(=S)NCc2cccs2)c(N2CCOCC2)c1` [Example 89] the selectivity ratio [1] was 2 to 4 and the minimal effective dose (rats) was no more than 10 mg/kg.

With `Cc1ccc(CNC(=N)NCc2ccns2)c(N(C)C)c1` [Example 90] the selectivity ratio [1] was 2 to 4 and the minimal effective dose (rats) was no more than 10 mg/kg.

`Cc1ccc(CNC(=N)NCc2ccno2)c(N(C)C)c1` [Example 92] showed a selectivity ratio [1] of 2 to 4 and a minimal effective dose (rats) of no more than 10 mg/kg.

`Cc1ccc(CNC(=S)NCc2cc3ccccc3s2)c(N(C)C)c1` [Example 93] showed a selectivity ratio [1] of no more than 2 and a minimal effective dose (rats) of no more than 10 mg/kg.

For `Cc1ccc(CNC(=S)NCc2ccc3ccsc3c2)c(N(C)C)c1` [Example 94], the selectivity ratio [1] was greater than 4 and the minimal effective dose (rats) was no more than 10 mg/kg.

`CN(C)c1cccc(NC(=N)Nc2cccs2)c1` [Example 95] gave a selectivity ratio [1] of no more than 2 and a minimal effective dose (rats) of no more than 10 mg/kg.

`CN(C)c1cccc(NC(=N)Nc2ccsc2)c1` [Example 96] gave a selectivity ratio [1] of no more than 2 and a minimal effective dose (rats) of no more than 10 mg/kg.

For `CN(C)c1ccccc1NC(=O)Nc1ccns1` [Example 97], the selectivity ratio [1] was no more than 2 and the minimal effective dose (rats) was greater than 30 mg/kg.

In the case of `Cc1ccc(CSC(=S)SCc2cccs2)c(N(C)C)c1` [Example 98], the selectivity ratio [1] is reported as no more than 2 and the minimal effective dose (rats) is reported as greater than 30 mg/kg.

For `Cc1ccc(CSC(=O)OCc2ccsc2)c(N(C)C)c1` [Example 99], the selectivity ratio [1] was no more than 2 and the minimal effective dose (rats) was greater than 30 mg/kg.

In the case of `Cc1ccc(COC(=S)SCc2ccsc2)c(N(C)C)c1` [Example 100], the selectivity ratio [1] is reported as no more than 2 and the minimal effective dose (rats) is reported as greater than 30 mg/kg.

`Cc1ccc(CSC(=O)SCc2cccs2)c(N(C)C)c1` [Example 101] gave a selectivity ratio [1] of 2 to 4 and a minimal effective dose (rats) greater than 30 mg/kg.

`Cc1ccc(CNC(=O)Nc2ncc[nH]2)c(N(C)C)c1` [Example 103] gave a selectivity ratio [1] greater than 4 and a minimal effective dose (rats) of no more than 10 mg/kg.

With `Cc1ccc(CNC(=O)Nc2ccn[nH]2)c(N(C)C)c1` [Example 104] the selectivity ratio [1] was no more than 2 and the minimal effective dose (rats) was greater than 30 mg/kg.

`CN(C)c1cc(CNC(=O)NCc2ccco2)ccc1C(F)(F)F` [Example 105] showed a selectivity ratio [1] greater than 4 and a minimal effective dose (rats) of no more than 10 mg/kg.

With `Cc1ccc(CNC(=S)Nc2cncs2)c(N(C)C)c1` [Example 106] the selectivity ratio [1] was greater than 4 and the minimal effective dose (rats) was no more than 10 mg/kg.

`Cc1ccc(CNC(=S)NCc2cc(C)nn2C)c(N(C)C)c1` [Example 107] showed a selectivity ratio [1] of 2 to 4 and a minimal effective dose (rats) of 10 to 20 mg/kg.

`Cc1ccc(CNC(=N)NCc2cc(C)nn2C)c(N(C)C)c1` [Example 108] gave a selectivity ratio [1] greater than 4 and a minimal effective dose (rats) of no more than 10 mg/kg.

With `Cc1ccc(CNC(=N)NCc2ccnn2C)cc1N(C)C` [Example 109] the selectivity ratio [1] was no more than 2 and the minimal effective dose (rats) was no more than 10 mg/kg.

`Cc1cc(CNC(=N)NCc2ccc(C)c(N(C)C)c2)n(C)n1` [Example 110] showed a selectivity ratio [1] of no more than 2 and a minimal effective dose (rats) of no more than 10 mg/kg.

For `Cc1ccc(CNC(=N)NCc2ccnn2C)c(N(C)C)c1` [Example 111], the selectivity ratio [1] was no more than 2 and the minimal effective dose (rats) was no more than 10 mg/kg.

Compound `Cc1ccc(CNC(=O)NCc2ccnn2C)cc1N(C)C` [Example 112] has a selectivity ratio [1] greater than 4 and a minimal effective dose (rats) of no more than 10 mg/kg.

With `Cc1cc(CNC(=O)NCc2ccc(C)c(N(C)C)c2)n(C)n1` [Example 113] the selectivity ratio [1] was greater than 4 and the minimal effective dose (rats) was 10 to 20 mg/kg.

With `CCCCc1ccc(CNC(=S)Nc2cccs2)c(N(C)C)c1` [Example 114] the selectivity ratio [1] was 2 to 4 and the minimal effective dose (rats) was no more than 10 mg/kg.

Compound `Cc1cc(CNC(=S)NCc2ccc(C)c(N(C)C)c2)n(C)n1` [Example 115] has a selectivity ratio [1] greater than 4 and a minimal effective dose (rats) of no more than 10 mg/kg.

With `Cc1ccc(CNC(=S)NCc2ccnn2C)cc1N(C)C` [Example 116] the selectivity ratio [1] was 2 to 4 and the minimal effective dose (rats) was no more than 10 mg/kg.

In the case of `Cc1ccc(CNC(=O)NCc2cc(C)nn2C)c(N(C)C)c1` [Example 117], the selectivity ratio [1] is reported as 2 to 4 and the minimal effective dose (rats) is reported as greater than 30 mg/kg.

Work on `CN(C)c1cc(C(C)(C)C)ccc1CNC(=S)NCc1cccs1` [Example 118] yielded a selectivity ratio [1] of no more than 2 and a minimal effective dose (rats) of no more than 10 mg/kg.

For `CN(C)c1cc(C2CC2)ccc1CNC(=S)NCc1cccs1` [Example 119], the selectivity ratio [1] was no more than 2 and the minimal effective dose (rats) was no more than 10 mg/kg.

In the case of `CCCCc1ccc(CNC(=O)NCc2ccco2)cc1N(C)C` [Example 120], the selectivity ratio [1] is reported as greater than 4 and the minimal effective dose (rats) is reported as no more than 10 mg/kg.

For `Cc1ccc(CSC(=S)OCc2ccsc2)c(N(C)C)c1` [Example 121], the selectivity ratio [1] was 2 to 4 and the minimal effective dose (rats) was greater than 30 mg/kg.

`Cc1ccc(NC(=S)NCc2cccs2)c(N(C)C)c1` [Example 122] gave a selectivity ratio [1] greater than 4 and a minimal effective dose (rats) of no more than 10 mg/kg.
